Test results as given in US12145944B2, “Imidazopyrimidines as EED inhibitors and the use thereof” (THE REGENTS OF THE UNIVERSITY OF MICHIGAN, priority 2019, dated 2024).
Read-outs that look alike come from different tables or passages of the source.

Columns and labels:
Pfeiffer cell line = experiment: Anti-proliferative activity, Pfeiffer cell line, 7 day treatment; assay type: cell-based; conditions: 7 day treatment, read-out: Pfeiffer Cell line
Outline: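 Cells seeded at 2 000-3 000 per well were treated with serially diluted compounds for 7 days at 37° C, 5% CO2. Growth was measured by WST-8 assay read at 450 nm after 1-4 h reagent incubation. Readings were normalized to DMSO-treated cells and IC50 values derived by nonlinear regression.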

EED (1-441)-His protein = target: T1, EED (1-441)-His protein (Homo sapiens, UniProt O75530); experiment: EED-H3K27Me3 peptide competition binding assay by AlphaScreen; conditions: EED Alpha screen binding assay, read-out: Alpha screen
T1 construct: 20 nM EED (1-441)-His protein
T1 sequence (O75530 whole entry): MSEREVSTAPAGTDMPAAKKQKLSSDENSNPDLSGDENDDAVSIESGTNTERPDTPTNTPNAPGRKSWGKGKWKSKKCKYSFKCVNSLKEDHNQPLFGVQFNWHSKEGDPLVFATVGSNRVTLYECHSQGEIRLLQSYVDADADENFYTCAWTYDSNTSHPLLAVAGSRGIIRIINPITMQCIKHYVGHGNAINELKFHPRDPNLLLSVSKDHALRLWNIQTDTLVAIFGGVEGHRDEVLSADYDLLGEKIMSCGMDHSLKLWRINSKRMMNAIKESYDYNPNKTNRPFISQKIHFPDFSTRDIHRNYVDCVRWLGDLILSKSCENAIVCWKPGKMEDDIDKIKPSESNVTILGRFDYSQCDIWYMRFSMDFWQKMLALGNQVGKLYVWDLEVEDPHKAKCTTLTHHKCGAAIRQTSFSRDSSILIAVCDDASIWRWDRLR
Method: “N/A” stands for “not assessed”.
EED-H3K27Me3 peptide competition binding assay by AlphaScreen (α-screen)
2.5 μl of solutions containing 20 nM biotin-H3K27Me3 (19-33) peptide in the buffer (25 mM HEPES, pH 8, 0.02% Tween-20, 0.5% BSA) were added to the wells and then incubated with compound for 30 min. […] Then 10 μl of the detection beads mix was added to the plate and incubated in the dark at RT for 1 h. The final concentration of donor and acceptor beads was 10 μg/ml for each. […] The data were then fit to a dose response equation to get the IC50 values.

[1] = tested on: KARPAS422 human B cell lymphoma cell; experiment: Cell proliferation, KARPAS422, 7 day treatment (WST-8); assay type: cell-based; conditions: 7 day treatment, read-out: Karpas Cell line
Outline: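 KARPAS422 cells seeded at 2 000-3 000 cells/well and exposed to serially diluted compounds for 7 days at 37 °C, 5% CO2. Growth measured by WST-8 (1-4 h, absorbance 450 nm). Readings normalized to DMSO-treated cells; IC50 from nonlinear regression.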

[2] = Homo sapiens, 168 h, anti-proliferative IC50 class, Pfeiffer cell line
[3] = Homo sapiens, KARPAS-422, 168 h, anti-proliferative IC50 class, Karpas 422 cell line
[4] = Homo sapiens, KARPAS-422, 168 h, anti-proliferative IC50, Karpas 422 cell line

SMILES | IC50 (Pfeiffer cell line; [2]) [nM] | IC50 (EED (1-441)-His protein; IC50 class) [nM] | IC50 [1, 3] [nM] | IC50 (EED (1-441)-His protein) [nM] | IC50 [1, 4] [nM] | also measured
Cc1ccc2c(n1)CN(CC(F)(F)F)C(=O)c1ncn3c(NCc4c(F)ccc5c4CCO5)ncc-2c13 [E 3, 12-(((5-fluoro-2,3-dihydrobenzofuran-4-yl)methyl)amino)-7-methyl-4-(2,2,2-trifluoroethyl)-4,5-dihydro-3H-2,4,6,11,12a-pentaazabenzo[4,5]cycloocta[1,2,3-cd]inden-3-one] | < 10 | < 10 | < 10 |  |  | 
Cc1ccc2c(n1)CN(CC(C)(F)F)C(=O)c1ncn3c(NCc4c(F)ccc5c4CCO5)ncc-2c13 [E 7, 4-(2,2-difluoropropyl)-12-(((5-fluoro-2,3-dihydrobenzofuran-4-yl)methyl)amino)-7-methyl-4,5-dihydro-3H-2,4,6,11,12a-pentaazabenzo[4,5]cycloocta[1,2,3-cd]inden-3-one] | < 10 | < 10 | < 10 |  |  | 
[2H]C([2H])([2H])c1ccc2c(n1)CN(CC(F)(F)F)C(=O)c1ncn3c(NCc4c(F)ccc5c4CCO5)ncc-2c13 [E 19, 12-(((5-fluoro-2,3-dihydrobenzofuran-4-yl)methyl)amino)-7-(methyl-d3)-4-(2,2,2-trifluoroethyl)-4,5-dihydro-3H-2,4,6,11,12a-pentaazabenzo[4,5]cycloocta[1,2,3-cd]inden-3-one] | < 10 | < 10 | < 10 |  |  | 
[2H]C([2H])(Nc1ncc2c3c(ncn13)C(=O)N(CC(F)(F)F)Cc1nc(C)ccc1-2)c1c(F)ccc2c1CCO2 [E 20, 12-(((5-fluoro-2,3-dihydrobenzofuran-4-yl)methyl-d2)amino)-7-methyl-4-(2,2,2-trifluoroethyl)-4,5-dihydro-3H-2,4,6,11,12a-pentaazabenzo[4,5]cycloocta[1,2,3-cd]inden-3-one] | < 10 | < 10 | < 10 |  |  | 
[2H]C([2H])([2H])c1ccc2c(n1)CN(CC(F)(F)F)C(=O)c1ncn3c(NC([2H])([2H])c4c(F)ccc5c4CCO5)ncc-2c13 [E 21, 12-(((5-fluoro-2,3-dihydrobenzofuran-4-yl)methyl-d2)amino)-7-(methyl-d3)-4-(2,2,2-trifluoroethyl)-4,5-dihydro-3H-2,4,6,11,12a-pentaazabenzo[4,5]cycloocta[1,2,3-cd]inden-3-one] | < 10 | < 10 | < 10 |  |  | 
[2H]C1Oc2ccc(F)c(C([2H])([2H])Nc3ncc4c5c(ncn35)C(=O)N(CC(F)(F)F)Cc3nc(C)ccc3-4)c2C1[2H] (stereo not drawn) [E 22, 12-(((5-fluoro-2,3-dihydrobenzofuran-4-yl-2,3-d2)methyl-d2)amino)-7-methyl-4-(2,2,2-trifluoroethyl)-4,5-dihydro-3H-2,4,6,11,12a-pentaazabenzo[4,5]cycloocta[1,2,3-cd]inden-3-one] | < 10 | < 10 | < 10 |  |  | 
[2H]C1Oc2ccc(F)c(C([2H])([2H])Nc3ncc4c5c(ncn35)C(=O)N(CC(F)(F)F)Cc3nc(C([2H])([2H])[2H])ccc3-4)c2C1[2H] (stereo not drawn) [E 23, 12-(((5-fluoro-2,3-dihydrobenzofuran-4-yl-2,3-d2)methyl-d2)amino)-7-(methyl-d3)-4-(2,2,2-trifluoroethyl)-4,5-dihydro-3H-2,4,6,11,12a-pentaazabenzo[4,5]cycloocta[1,2,3-cd]inden-3-one] | < 10 | < 10 | < 10 |  |  | 
Cc1ccc(-c2cc(C#N)c(NCc3c(F)ccc4c3CCO4)n3cnc(S(C)(=O)=O)c23)c(C)n1 [E 25, 8-(2,6-dimethylpyridin-3-yl)-5-(((5-fluoro-2,3-dihydrobenzofuran-4-yl)methyl)amino)-1-(methylsulfonyl)imidazo[1,5-a]pyridine-6-carbonitrile] | 10 to 100 | < 10 | 10 to 100 |  |  | 
CS(=O)(=O)c1ncn2c(NCc3c(F)ccc4c3CCO4)c(C#N)cc(-c3ccc(C4CC4)nc3)c12 [E 26, 8-(6-cyclopropylpyridin-3-yl)-5-(((5-fluoro-2,3-dihydrobenzofuran-4-yl)methyl)amino)-1-(methylsulfonyl)imidazo[1,5-a]pyridine-6-carbonitrile] | < 10 | 10 to 100 | 10 to 100 |  |  | 
Cc1ncccc1-c1cc(C#N)c(NCc2c(F)ccc3c2CCO3)n2cnc(S(C)(=O)=O)c12 [E 27, 5-(((5-fluoro-2,3-dihydrobenzofuran-4-yl)methyl)amino)-8-(2-methylpyridin-3-yl)-1-(methylsulfonyl)imidazo[1,5-a]pyridine-6-carbonitrile] | < 10 | 10 to 100 | 10 to 100 |  |  | 
CC(C)N1Cc2cc(C(F)(F)F)ncc2-c2cnc(NCc3c(F)ccc4c3CCO4)n3cnc(c23)C1=O [E 40, 12-(((5-fluoro-2,3-dihydrobenzofuran-4-yl)methyl)amino)-4-isopropyl-7-(trifluoromethyl)-4,5-dihydro-3H-2,4,8,11,12a-pentaazabenzo[4,5]cycloocta[1,2,3-cd]inden-3-one] | < 10 | < 10 | < 10 |  |  | 
O=C1c2ncn3c(NCc4c(F)ccc5c4CCO5)ncc(c23)-c2ccc(C3COC3)nc2CN1CC(F)(F)F [E 51, 12-(((5-fluoro-2,3-dihydrobenzofuran-4-yl)methyl)amino)-7-(oxetan-3-yl)-4-(2,2,2-trifluoroethyl)-4,5-dihydro-3H-2,4,6,11,12a-pentaazabenzo[4,5]cycloocta[1,2,3-cd]inden-3-one] | < 10 | < 10 | < 10 |  |  | 
O=C1Nc2ncccc2-c2cnc(NCc3c(F)ccc4c3CCO4)n3cnc1c23 [compound 4, 11-(((5-fluoro-2,3-dihydrobenzofuran-4-yl)methyl)amino)-2,4,5,10,11a-pentaazadibenzo[cd,f]azulen-3(4H)-one] |  |  |  | > 10 | > 100 | IC50 (Pfeiffer cell line; Homo sapiens, 168 h, anti-proliferative IC50, Pfeiffer cell line): > 100 nM
O=C1c2ncn3c(NCc4c(F)ccc5c4CCO5)ncc(c23)-c2sccc2CN1C1CC1 [compound 87, 4-cyclopropyl-11-(((5-fluoro-2,3-dihydrobenzofuran-4-yl)methyl)amino)-4,5-dihydro-3H-8-thia-2,4,10,11a-tetraazacyclopenta[4,5]cycloocta[1,2,3-cd]inden-3-one] |  |  |  | 11.2 |  | IC50 (Pfeiffer cell line; anti-proliferative IC50, Pfeiffer cell line): 0.018 nM; IC50 ([1]; anti-proliferative IC50, Karpas 422 cell line): 8.67 nM

Second part, led by results:

IC50 (Pfeiffer cell line; [2]) [nM] | IC50 (EED (1-441)-His protein; IC50 class) [nM] | IC50 [1, 3] [nM] | IC50 (EED (1-441)-His protein) [nM] | IC50 [1, 4] [nM] | SMILES | also measured
 |  |  | 1.15 | > 100 | CCP(=O)(CC)c1ncn2c(NCc3c(F)ccc4c3CCO4)ncc(-c3ccc(C(F)(F)F)nc3)c12 [compound 120, diethyl(5-(((5-fluoro-2,3-dihydrobenzofuran-4-yl)methyl)amino)-8-(6-(trifluoromethyl)pyridin-3-yl)imidazo[1,5-c]pyrimidin-1-yl)phosphine oxide] | 
 |  |  | 0.31 | > 100 | CCP(=O)(CC)c1ncn2c(NCc3c(F)ccc4c3CCO4)ncc(-c3ccc(C(F)(F)F)cc3)c12 [compound 121, diethyl(5-(((5-fluoro-2,3-dihydrobenzofuran-4-yl)methyl)amino)-8-(4-(trifluoromethyl)phenyl)imidazo[1,5-c]pyrimidin-1-yl)phosphine oxide] | 
 |  |  | 0.31 | > 100 | CCP(=O)(CC)c1ncn2c(NCc3c(F)ccc4c3CCO4)ncc(-c3ccc(S(C)(=O)=O)cc3)c12 [compound 122, diethyl(5-(((5-fluoro-2,3-dihydrobenzofuran-4-yl)methyl)amino)-8-(4-(methylsulfonyl)phenyl)imidazo[1,5-c]pyrimidin-1-yl)phosphine oxide] | 
 |  |  | 4.74 | 22.9 | Cc1ccc(-c2cnc(NCc3c(F)ccc4c3CCO4)n3cnc(P(C)(C)=O)c23)c(C)n1 [compound 123, (8-(2,6-dimethylpyridin-3-yl)-5-(((5-fluoro-2,3-dihydrobenzofuran-4-yl)methyl)amino)imidazo[1,5-c]pyrimidin-1-yl)dimethylphosphine oxide] | 
 |  |  | 8.04 | 72 | CCP(=O)(CC)c1ncn2c(NCc3c(F)ccc4c3CCO4)ncc(-c3ccc(F)cc3)c12 [compound 124, diethyl(5-(((5-fluoro-2,3-dihydrobenzofuran-4-yl)methyl)amino)-8-(4-fluorophenyl)imidazo[1,5-c]pyrimidin-1-yl)phosphine oxide] | 
 |  |  | 27.6 | 91.7 | CCP(=O)(CC)c1ncn2c(NCc3c(F)ccc4c3CCO4)ncc(-c3ccc(C)nc3C)c12 [compound 125, (8-(2,6-dimethylpyridin-3-yl)-5-(((5-fluoro-2,3-dihydrobenzofuran-4-yl)methyl)amino)imidazo[1,5-c]pyrimidin-1-yl)diethylphosphine oxide] | 
